The record followed here is patent US20230339939A1 (Bayer Aktiengesellschaft, priority 2020, published 2023).

Common to all, as to format: biochemical
Assay [1] deals with wild-type Epidermal Growth Factor Receptor (EGFR) (Homo sapiens (Human), UniProt P00533). Kind of assay: WT-EGFR Kinase Assay (TR-FRET, 2 mM ATP). The note with it: read-out: EGFR Wildtype-2 mM ATP IC50 [mol/l] (median), comparison compounds of WO 2016/120196 (Table 4). From the text: Inhibitory activity of compounds of the present invention against wild-type Epidermal Growth Factor Receptor (EGFR) was quantified employing the TR-FRET based EGFR assay as described in the following paragraphs.
Recombinant fusion protein of N-terminal Glutathion-S-Transferase (GST) and a fragment of human EGFR (amino acids R669 to A1210), expressed in Sf9 insect cells and purified via affinity chromatography using Glutathion Sepharose as described above, was used as kinase. As substrate for the kinase reaction the biotinylated peptide biotin-Ahx-[…] (C-terminus in amide form) was used which can be purchased e.g. form the company Biosynthan GmbH (Berlin-Buch, Germany).
For the assay 50 nl of a 100 fold concentrated solution of the test compound in DMSO was pipetted into either a black low volume 384 well microtiter plate or a black 1536 well microtiter plate (both Greiner Bio-One, Frickenhausen, Germany), 2 μL of a solution of EGFR in aqueous assay buffer [50 mM Hepes pH 7.0, 10 mM MgCl2, 1 mM dithiothreitol, 0.5 mM EGTA, 0.3 mM activated sodium ortho-vanadate, 0.005% (w/v) bovine serum albumin, 0.005% (v/v) Tween-20] were added and the mixture was incubated for 15 min at 22° C. to allow pre-binding of the test compounds to the enzyme before the start of the kinase reaction. […] The concentration of EGFR was adjusted depending of the activity of the enzyme lot and was chosen appropriate to have the assay in the linear range, typical concentration was 7.6 pg/μL. The reaction was stopped by the addition of 3 μL of a solution of HTRF detection reagents (83.3 nM streptavidine-XL665 [Cisbio Bioassays, Codolet, France] and 1.67 nM PT66-Tb-Cryptate, a terbium-cryptate labelled anti-phospho-tyrosine antibody from Cisbio Bioassays [instead of the PT66-Tb-cryptate PT66-Eu-Chelate from Perkin Elmer can also be used]) in an aqueous EDTA-solution (133.3 mM EDTA, 0.2% (w/v) bovine serum albumin in 50 mM HEPES pH 7.5).
The resulting mixture was incubated 1 h at 22° C. to allow the binding of the biotinylated phosphorylated peptide to the streptavidine-XL665 and the PT66-Tb-Cryptate. Subsequently the amount of phosphorylated substrate was evaluated by measurement of the resonance energy transfer from the PT66-Tb-Cryptate to the streptavidine-XL665. Therefore, the fluorescence emissions at 620 nm and 665 nm after excitation at 337 nm were measured in a HTRF reader, e.g. a Pherastar (BMG Labtechnologies, Offenburg, Germany) or a Viewlux (Perkin-Elmer). The ratio of the emissions at 665 nm and at 622 nm was taken as the measure for the amount of phosphorylated substrate.

The target of assay [2] is T1, CSNK1A1 (Homo sapiens (Human), UniProt P48729). The experiment in a line: CSNK1A1 Assay 1 (ADP-Glo, 1 μM ATP, substrate Btn-Ahx-[…]). The note with it: median, comparison compounds of WO 2016/120196 (Table 4), read-out: CSNK1A1 Assay 1 IC50 [mol/l] (median). The method, then:
(§1) CSNK1A1-inhibitory activity of compounds of the present invention in presence of 1 μM adenosine-tri-phosphate (ATP) was quantified employing the CSNK1A1 assay as described in the following paragraphs. In essence, the enzyme activity is measured by quantification of the adenosine-di-phosphate (ADP), which is generated as a co-product of the enzyme reaction, via the “ADP-Glo™ Kinase Assay” kit from the company Promega. This detection system works as follows: In a first step the ATP not consumed in the kinase reaction is quantitatively converted to cAMP employing an adenylate cyclase (“ADP-Glo-reagent”), then the adenylate cyclase is stopped and the ADP generated in the kinase reaction converted to ATP which generates in a luciferase-based reaction a glow-luminescence signal (“Kinase Detection Reagent”).
Recombinant fusion protein of N-terminal Glutathion-S-Transferase (GST) and full-length human CSNK1A1, expressed by baculovirus infected insect cells and purified via Glutathion affinity chromatography, was purchased from Life Technologies (product no. PV4174) and used as enzyme. As substrate for the kinase reaction the biotinylated peptide Btn-Ahx-[…] (C-terminus in amide form) was used which can be purchased e.g. from the company Biosyntan (Berlin-Buch, Germany). […]

In assay [3] the target is CSNK1D (Homo sapiens (Human), UniProt P48730). Kind of assay: CSNK1D Assay (ADP-Glo, 1 μM ATP). The conditions noted are these: median, read-out: CSNK1D IC50 [mol/l] (median). The method, then: CSNK1D-inhibitory activity of compounds of the present invention in presence of 1 μM adenosine-tri-phosphate (ATP) was quantified employing the CSNK1 D assay as described in the following paragraphs. In essence, the enzyme activity is measured by quantification of the adenosine-di-phosphate (ADP), which is generated as a co-product of the enzyme reaction, via the “ADP-Glo™ Kinase Assay” kit from the company Promega. This detection system works as follows: In a first step the ATP not consumed in the kinase reaction is quantitatively converted to cAMP employing an adenylate cyclase (“ADP-Glo-reagent”), then the adenylate cyclase is stopped and the ADP generated in the kinase reaction converted to ATP which generates in a luciferase-based reaction a glow-luminescence signal (“Kinase Detection Reagent”).
Sequence of CSNK1D (P48730 whole entry): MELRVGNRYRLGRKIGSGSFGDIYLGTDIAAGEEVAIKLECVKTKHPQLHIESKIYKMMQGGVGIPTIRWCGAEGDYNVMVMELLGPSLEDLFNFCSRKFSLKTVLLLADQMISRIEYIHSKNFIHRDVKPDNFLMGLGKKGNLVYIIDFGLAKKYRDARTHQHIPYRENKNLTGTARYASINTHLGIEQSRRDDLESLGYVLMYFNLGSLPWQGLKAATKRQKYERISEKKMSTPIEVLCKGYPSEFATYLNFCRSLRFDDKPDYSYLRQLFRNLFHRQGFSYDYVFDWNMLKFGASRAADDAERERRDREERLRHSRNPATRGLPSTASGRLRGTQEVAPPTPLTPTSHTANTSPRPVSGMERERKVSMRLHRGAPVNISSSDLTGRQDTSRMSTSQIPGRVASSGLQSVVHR
Recombinant fusion protein of N-terminal Glutathion-S-Transferase (GST) and full-length human CSNK1D, expressed by baculovirus infected insect cells and purified via Glutathion affinity chromatography, was purchased from Life Technologies (product no. PV3665) and used as enzyme. As substrate for the kinase reaction the biotinylated peptide Btn-Ahx-[…] (C-terminus in amide form) was used which can be purchased e.g. from the company Biosyntan (Berlin-Buch, Germany).
For the assay 50 nl of a 100 fold concentrated solution of the test compound in DMSO was pipetted into a white 1536-well microtiter plate (Greiner Bio-One, Frickenhausen, Germany), 2 μL of a solution of CSNK1D in aqueous assay buffer [50 mM HEPES pH 7.5, 10% (v/v) glycerol, 10 mM MgCl2, 50 mM NaCl, 1 mM dithiothreitol, 0.01% (w/v) bovine serum albumin, 0.01% (v/v) Triton X-100] were added and the mixture was incubated for 15 min at 22° C. to allow pre-binding of the test compounds to the enzyme before the start of the kinase reaction. […] The concentration of CSNK1D was adjusted depending of the activity of the enzyme lot and was chosen appropriate to have the assay in the linear range, a typical concentration is about 0.5 ng/μL. The reaction was stopped by the addition of 2.5 μL of “ADP-Glo-reagent” (1:1.5 fold diluted with water) and the resulting mixture was incubated at 22° C. for 1 h to convert the ATP not consumed in the kinase reaction completely […]. Subsequently 2.5 μL of the “kinase detection reagent” (1.2 fold more concentrated than recommended by the producer) were added, the resulting mixture was incubated at 22° C. for 1 h and then the luminescence measured with a suitable measurement instrument (e.g. Viewlux™ from Perkin-Elmer). The amount of emitted light was taken as a measure for the amount of ADP generated and thereby for the activity of the CSNK1D.

Assay [4] concerns the target T1, CSNK1A1. Kind of assay: CSNK1A1 Assay 2 (ADP-Glo, 1 μM ATP, substrate biotin-Ahx-KRRRAL-pS-VASLPGL). The note with it: median, read-out: CSNK1A1 Assay 2 IC50 [mol/l] (median). Here is the method:
as §1
(§2) Recombinant fusion protein of N-terminal Glutathion-S-Transferase (GST) and full-length human CSNK1A1, expressed by baculovirus infected insect cells and purified via Glutathion affinity chromatography, was purchased from Life Technologies (product no. PV4174) and used as enzyme. As substrate for the kinase reaction the biotinylated peptide biotin-Ahx-KRRRAL-pS-VASLPGL (C-terminus in amide form) was used which can be purchased e.g. from the company Biosyntan (Berlin-Buch, Germany).
For the assay 50 nl of a 100 fold concentrated solution of the test compound in DMSO was pipetted into a white 1536-well microtiter plate (Greiner Bio-One, Frickenhausen, Germany), 2 μL of a solution of CSNK1A1 in aqueous assay buffer [50 mM HEPES pH 7.5, 10% (v/v) glycerol, 10 mM MgCl2, 50 mM NaCl, 1 mM dithiothreitol, 0.01% (w/v) bovine serum albumin, 0.01% (v/v) Triton X-100] were added and the mixture was incubated for 15 min at 22° C. to allow pre-binding of the test compounds to the enzyme before the start of the kinase reaction. […] The concentration of CSNK1A1 was adjusted depending of the activity of the enzyme lot and was chosen appropriate to have the assay in the linear range, a typical concentrations are about 0.0375 ng/μL. The reaction was stopped by the addition of 2.5 μL of “ADP-Glo-reagent” (1:1.5 fold diluted with water) and the resulting mixture was incubated at 22° C. for 1 h to convert the ATP not consumed in the kinase reaction completely […]. Subsequently 2.5 μL of the “kinase detection reagent” (1.2 fold more concentrated than recommended by the producer) were added, the resulting mixture was incubated at 22° C. for 1 h and then the luminescence measured with a suitable measurement instrument (e.g. Viewlux™ from Perkin-Elmer). The amount of emitted light was taken as a measure for the amount of ADP generated and thereby for the activity of the CSNK1A1.

Assay [5] has as its target T1, CSNK1A1. The experiment in a line: CSNK1A1 High ATP Assay (ADP-Glo, 1 mM ATP). The conditions noted are these: median, read-out: CSNK1A1 high ATP assay IC50 [mol/l] (median). The method, then: CSNK1A1-inhibitory activity of compounds of the present invention in presence of 1 mM adenosine-tri-phosphate (ATP) was quantified employing the CSNK1A1-high-ATP-assay as described in the following paragraphs. In essence, the enzyme activity is measured by quantification of the adenosine-di-phosphate (ADP), which is generated as a co-product of the enzyme reaction, via the “ADP-Glo™ Kinase Assay” kit from the company Promega. This detection system works as follows: In a first step the ATP not consumed in the kinase reaction is quantitatively converted to cAMP employing an adenylate cyclase (“ADP-Glo-reagent”), then the adenylate cyclase is stopped and the ADP generated in the kinase reaction converted to ATP which generates in a luciferase-based reaction a glow-luminescence signal (“Kinase Detection Reagent”).
as §2
For the assay 50 nl of a 100 fold concentrated solution of the test compound in DMSO was pipetted into a white low volume 384-well microtiter plate (Greiner Bio-One, Frickenhausen, Germany), 2 μL of a solution of CSNK1A1 in aqueous assay buffer [50 mM HEPES pH 7.5, 10% (v/v) glycerol, 10 mM MgCl2, 50 mM NaCl, 1 mM dithiothreitol, 0.01% (w/v) bovine serum albumin, 0.01% (v/v) Triton X-100] were added and the mixture was incubated for 15 min at 22° C. to allow pre-binding of the test compounds to the enzyme before the start of the kinase reaction. […] The concentration of CSNK1A1 was adjusted depending of the activity of the enzyme lot and was chosen appropriate to have the assay in the linear range, a typical concentration is about 0.4 ng/μL. The reaction was stopped by the addition of 2.5 μL of “ADP-Glo-reagent” (1:1.5 fold diluted with water) and the resulting mixture was incubated at 22° C. for 1 h to convert the ATP not consumed in the kinase reaction completely […]. Subsequently 2.5 μL of the “kinase detection reagent” (1.2 fold more concentrated than recommended by the producer) were added, the resulting mixture was incubated at 22° C. for 1 h and then the luminescence measured with a suitable measurement instrument (e.g. Viewlux™ from Perkin-Elmer). The amount of emitted light was taken as a measure for the amount of ADP generated and thereby for the activity of the CSNK1A1.

T1 sequence (P48729 whole entry): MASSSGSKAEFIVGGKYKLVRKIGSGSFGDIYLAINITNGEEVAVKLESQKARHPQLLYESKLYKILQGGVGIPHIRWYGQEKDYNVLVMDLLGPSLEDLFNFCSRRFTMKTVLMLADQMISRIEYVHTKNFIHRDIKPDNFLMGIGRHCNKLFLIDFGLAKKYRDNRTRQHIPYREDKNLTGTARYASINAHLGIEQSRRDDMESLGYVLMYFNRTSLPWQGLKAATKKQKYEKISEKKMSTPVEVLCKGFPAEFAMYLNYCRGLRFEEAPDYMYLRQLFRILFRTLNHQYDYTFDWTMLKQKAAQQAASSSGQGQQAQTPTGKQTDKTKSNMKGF

“2-(4-fluorophenyl)-N-{4-[7-(2-oxopyrrolidin-1-yl)-3-(pyridin-2-yl)-1H-pyrrolo[3,2-b]pyridin-2-yl]pyridin-2-yl}acetamide [Example 40]”: the IC50 in assay [1] was 0.0855 µM; in assay [2] it was 0.0241 µM.

As to `O=C(Cc1ccc(F)cc1)Nc1cc(-c2[nH]c3ccc(F)nc3c2-c2ccc(F)cn2)ccn1` [Example 50, N-{4-[5-fluoro-3-(5-fluoropyridin-2-yl)-1H-pyrrolo[3,2-b]pyridin-2-yl]pyridin-2-yl}-2-(4-fluorophenyl)acetamide], the IC50 in assay [3] amounted to 0.00315 µM; in assay [4], 0.00142 µM; in assay [5] it was 0.0416 µM.
